Results on 16 compounds are retold here after patent US6117841A, “Substituted peptidylamine calcium channel blockers” (Warner-Lambert Company, priority 1999, dated 2000).

For this assay, the target named is T1, N-type Ca^2+ Channel (Homo sapiens, UniProt Q00975).
T1 construct: host or cells: IMR-32 cells differentiated with dibutyryl cAMP and bromodeoxyuridine
The experiment in a line: Measurement of N-type Ca2+ channel blocking potencies in IMR-32 cells using the fluorescent Ca2+ indicator Indo-1. Format: cell-based. The conditions noted are these: IMR-32 cells; for IC50: K+ depolarization, 5 μM nitrendipine to block L-type channels, read-out: IMR 32 IC50. How it is done:
Measurement of N-type Ca^2+ Channel Blocking Potencies of Compounds in IMR-32 Cells Using the Fluorescent Ca^2 + Indicator Indo-1
IMR-32 cells are a human tumoral cell line of neural origin. […] Calcium flux into these cells may be induced by stimulation with elevated potassium concentrations. The L-channel component of calcium flux may be blocked by adding 5 μM nitrendipine. The remaining component of calcium entry into the IMR-32 cells is due to calcium flux through N-type calcium channels. Intracellular calcium concentrations are measured using the fluorescent calcium indicator Indo-1. The effect of drug concentration on calcium uptake is studied.
The IMR-32 cell line was obtained from the American Type Culture Collection (Rockville, Md.). Cells were grown in Eagle's Minimum Essential Medium with Earle's salts supplemented with 10% fetal bovine serum, 2 mM L-Gln and antibiotic/antimycotic mixture (Gibco). At approximately 80% confluency, differentiation was induced by the addition of 1 mM dibutyryl cAMP and 2.5 μM bromodeoxyuridine to the medium. After 7 to 13 days of differentiation, cells were detached using 0.5 mM EDTA and loaded with 5 μM Indo-1 acetoxymethyl ester (Molecular Probes, Eugene, Oreg.) at 30° C. for 45 minutes. Loaded cells were washed twice, resuspended (~10^7 cells/mL) in assay buffer (10 mM HEPES/Tris pH 7.4 in Hank's Balanced Salt Solution without bicarbonate or phenol red containing 0.5% bovine serum albumin) and kept on ice until use. Fluorescence measurements were carried out in a Photon Technology International (PTI, South Brunswick, N.J.) Model RF-F3004 spectrofluorometer with dual emission monochromators using excitation at 350 nm and emission at 400 and 490 nm. The instrument was equipped with a thermostated cuvette holder with stirring capabilities as well as with a computer-controlled pump which allowed for reagent addition during measurement. Instrument control and data collection was done by PTI's OSCAR software running on an IBM compatible computer. Different concentrations of the test compounds (60 μL in dimethyl sulfoxide) were added to 5.94 mL of assay buffer containing approximately 3×10^6 loaded cells, and 5 μM nitrendipine (in 30 μL EtOH) to block L-type Ca^2+ channels. Samples were incubated for 10 minutes at 30° C. and then aliquoted into three 10×10 mm disposable acrylic cuvettes. Emission signals at 400 and 490 nm were acquired from each cuvette at 30° C. for 50 seconds. At 20 seconds after the start of reading, cells were depolarized by the addition of 160 μL of stimulation solution (1 M KCl, 68 mM CaCl2) to the cuvette via the computer-controlled pump. Ratio of dual emission signals (400 nm/ 490 nm), which is proportional to intracellular Ca^2+ concentration, was plotted against time, and the difference between maximal response after stimulation and basal value (before stimulation) was determined. Values obtained in this way were plotted as a function of drug concentration. IC50 values of test compounds were calculated by fitting a four-parameter logistic function to the data using the least squares method.

T1 sequence (Q00975 whole entry): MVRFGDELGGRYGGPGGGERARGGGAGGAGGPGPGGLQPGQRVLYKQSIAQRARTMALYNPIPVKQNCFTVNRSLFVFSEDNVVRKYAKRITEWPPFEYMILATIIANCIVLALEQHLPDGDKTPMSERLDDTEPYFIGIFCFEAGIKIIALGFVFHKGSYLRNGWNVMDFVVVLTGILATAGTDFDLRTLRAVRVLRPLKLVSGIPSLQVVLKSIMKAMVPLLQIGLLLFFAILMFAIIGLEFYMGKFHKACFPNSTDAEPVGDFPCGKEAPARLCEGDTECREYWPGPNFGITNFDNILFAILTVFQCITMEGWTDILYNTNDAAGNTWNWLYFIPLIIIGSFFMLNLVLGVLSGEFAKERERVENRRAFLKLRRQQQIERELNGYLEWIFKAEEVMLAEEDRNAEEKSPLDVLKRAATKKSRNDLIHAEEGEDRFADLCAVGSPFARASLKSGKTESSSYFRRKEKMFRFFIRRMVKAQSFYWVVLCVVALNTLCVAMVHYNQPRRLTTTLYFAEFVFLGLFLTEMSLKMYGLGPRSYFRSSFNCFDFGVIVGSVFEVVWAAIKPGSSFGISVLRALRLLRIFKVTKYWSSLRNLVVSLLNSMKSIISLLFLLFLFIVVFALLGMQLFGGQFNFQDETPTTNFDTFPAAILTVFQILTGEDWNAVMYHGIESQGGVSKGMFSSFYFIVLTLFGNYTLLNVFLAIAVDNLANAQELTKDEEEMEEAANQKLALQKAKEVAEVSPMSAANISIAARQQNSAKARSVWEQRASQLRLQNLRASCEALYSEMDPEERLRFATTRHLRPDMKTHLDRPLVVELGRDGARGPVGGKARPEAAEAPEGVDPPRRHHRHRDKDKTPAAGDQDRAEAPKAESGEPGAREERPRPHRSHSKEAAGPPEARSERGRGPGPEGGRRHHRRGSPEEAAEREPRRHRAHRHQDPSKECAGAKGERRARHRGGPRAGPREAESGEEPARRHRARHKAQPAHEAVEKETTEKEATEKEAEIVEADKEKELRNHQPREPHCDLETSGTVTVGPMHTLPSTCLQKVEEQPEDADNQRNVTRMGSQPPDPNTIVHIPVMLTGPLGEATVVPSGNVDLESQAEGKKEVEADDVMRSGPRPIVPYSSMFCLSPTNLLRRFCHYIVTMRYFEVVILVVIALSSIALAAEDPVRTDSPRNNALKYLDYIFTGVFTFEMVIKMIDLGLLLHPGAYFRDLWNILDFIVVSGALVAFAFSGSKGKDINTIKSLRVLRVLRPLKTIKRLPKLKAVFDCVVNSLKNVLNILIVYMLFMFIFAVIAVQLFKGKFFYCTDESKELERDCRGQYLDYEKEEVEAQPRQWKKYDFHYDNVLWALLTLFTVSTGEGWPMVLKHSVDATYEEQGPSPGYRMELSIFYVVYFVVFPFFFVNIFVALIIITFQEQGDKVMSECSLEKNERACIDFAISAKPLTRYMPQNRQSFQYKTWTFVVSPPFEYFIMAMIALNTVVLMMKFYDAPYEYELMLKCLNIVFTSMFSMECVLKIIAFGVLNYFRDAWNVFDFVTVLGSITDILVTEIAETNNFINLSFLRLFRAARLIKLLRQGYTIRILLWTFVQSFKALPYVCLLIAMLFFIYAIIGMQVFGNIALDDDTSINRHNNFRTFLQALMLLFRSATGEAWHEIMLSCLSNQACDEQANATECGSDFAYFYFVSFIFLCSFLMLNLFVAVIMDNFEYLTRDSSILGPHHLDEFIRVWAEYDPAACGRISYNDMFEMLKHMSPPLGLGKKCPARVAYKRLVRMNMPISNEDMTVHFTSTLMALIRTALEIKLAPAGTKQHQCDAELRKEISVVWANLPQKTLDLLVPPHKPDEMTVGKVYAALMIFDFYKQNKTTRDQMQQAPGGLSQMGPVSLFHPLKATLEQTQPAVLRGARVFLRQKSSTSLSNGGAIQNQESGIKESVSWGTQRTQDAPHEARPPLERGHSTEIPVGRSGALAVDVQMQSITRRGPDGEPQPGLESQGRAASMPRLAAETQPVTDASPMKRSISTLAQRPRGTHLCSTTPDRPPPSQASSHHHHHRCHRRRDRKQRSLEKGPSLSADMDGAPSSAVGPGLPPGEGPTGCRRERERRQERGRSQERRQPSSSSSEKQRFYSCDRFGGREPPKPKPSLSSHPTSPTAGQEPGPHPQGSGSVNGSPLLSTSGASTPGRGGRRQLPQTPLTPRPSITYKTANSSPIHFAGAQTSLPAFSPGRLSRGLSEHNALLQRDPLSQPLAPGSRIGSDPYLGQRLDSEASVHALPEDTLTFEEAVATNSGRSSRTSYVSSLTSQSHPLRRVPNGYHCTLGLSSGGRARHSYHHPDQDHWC
T1 sequence (P54284 whole entry partner): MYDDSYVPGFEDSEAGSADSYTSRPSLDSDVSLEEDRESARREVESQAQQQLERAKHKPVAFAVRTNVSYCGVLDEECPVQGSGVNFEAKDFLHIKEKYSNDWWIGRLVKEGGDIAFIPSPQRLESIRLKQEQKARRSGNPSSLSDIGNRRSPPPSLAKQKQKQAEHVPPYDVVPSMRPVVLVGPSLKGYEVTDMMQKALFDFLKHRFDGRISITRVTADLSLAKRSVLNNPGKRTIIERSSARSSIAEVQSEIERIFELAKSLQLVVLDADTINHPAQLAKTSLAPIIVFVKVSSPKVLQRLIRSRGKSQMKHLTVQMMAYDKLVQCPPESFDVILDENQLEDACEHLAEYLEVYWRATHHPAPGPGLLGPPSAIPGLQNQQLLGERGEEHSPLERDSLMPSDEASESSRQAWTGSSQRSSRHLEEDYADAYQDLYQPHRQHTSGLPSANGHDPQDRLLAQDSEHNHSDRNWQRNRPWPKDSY
T1 sequence (P54289 25-946 partner limits assumed): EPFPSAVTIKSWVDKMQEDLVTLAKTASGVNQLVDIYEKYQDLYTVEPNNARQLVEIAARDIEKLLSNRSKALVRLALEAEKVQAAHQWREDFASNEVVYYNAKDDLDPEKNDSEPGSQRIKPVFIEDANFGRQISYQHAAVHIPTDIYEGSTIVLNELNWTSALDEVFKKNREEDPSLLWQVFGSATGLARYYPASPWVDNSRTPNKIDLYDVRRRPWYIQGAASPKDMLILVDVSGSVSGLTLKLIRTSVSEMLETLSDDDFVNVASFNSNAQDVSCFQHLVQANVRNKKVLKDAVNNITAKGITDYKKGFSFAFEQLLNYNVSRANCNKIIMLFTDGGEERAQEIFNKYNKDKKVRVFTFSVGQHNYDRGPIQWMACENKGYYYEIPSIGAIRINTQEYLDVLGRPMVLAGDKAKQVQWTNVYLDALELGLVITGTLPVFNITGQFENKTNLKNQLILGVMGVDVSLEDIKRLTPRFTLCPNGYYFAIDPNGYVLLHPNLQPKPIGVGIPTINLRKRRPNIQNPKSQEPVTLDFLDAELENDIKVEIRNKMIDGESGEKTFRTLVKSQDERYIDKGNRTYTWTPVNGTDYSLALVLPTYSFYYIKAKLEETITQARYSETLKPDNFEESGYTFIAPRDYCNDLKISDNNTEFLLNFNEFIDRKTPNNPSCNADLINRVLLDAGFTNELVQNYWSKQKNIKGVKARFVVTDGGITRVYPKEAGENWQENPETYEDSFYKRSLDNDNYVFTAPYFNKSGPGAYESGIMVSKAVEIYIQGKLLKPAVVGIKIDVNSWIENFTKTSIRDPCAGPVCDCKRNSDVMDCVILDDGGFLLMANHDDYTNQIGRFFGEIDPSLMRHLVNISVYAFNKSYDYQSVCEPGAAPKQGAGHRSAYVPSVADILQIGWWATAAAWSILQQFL
T1 sequence (P54289 947-1103 partner limits assumed): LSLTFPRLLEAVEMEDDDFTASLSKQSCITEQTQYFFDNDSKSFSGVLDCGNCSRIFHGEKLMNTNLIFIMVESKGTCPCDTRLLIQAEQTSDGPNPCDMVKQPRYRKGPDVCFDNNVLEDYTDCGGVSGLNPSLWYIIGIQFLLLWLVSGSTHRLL

In the case of `CC(C)CCN(C)[C@@H](CC(C)C)C(=O)N[C@@H](Cc1ccc(OCc2ccccc2)cc1)C(=O)NC1CCN(Cc2ccccc2)CC1` (relative stereo) [Example 11, [S-(R*,R*)]-4-Methyl-2-[methyl-(3-methyl-butyl)-amino]-pentanoic acid [2-(4-benzyloxy-phenyl)-1-(1-benzyl-piperidin-4-ylcarbamoyl)-ethyl]-amide], for the setting “5 μM nitrendipine”, the “IMR 32 % of Blockade @ 1 μM” value turned out to be 70% and the “IMR 32 % of Blockade @ 10 μM” value is 89%. Taken in the same sequence, the figures for `CC(C)CCN(C)[C@@H](CC(C)C)C(=O)N[C@@H](Cc1ccc(OCc2ccccc2)cc1)C(=O)N1CCN(C)CC1` (relative stereo) [Example 12, [S-(R*,R*)]-4-Methyl-2-[methyl-(3-methyl-butyl)-amino]-pentanoic acid [1-(4-benzyloxy-benzyl)-2-(4-methyl-piperazin-1-yl)-2-oxo-ethyl]-amide] were 39% and 88%.

Take `CC(C)C[C@@H](C(=O)N[C@@H](Cc1ccc(OCc2ccccc2)cc1)C(=O)N1CCCCC1)N(C)Cc1ccc(C(C)(C)C)cc1` (relative stereo) [Example 14, [S-(R*,R*)]-2-[(4-tert-Butyl-benzyl)-methyl-amino]-4-methyl-pentanoic acid [2-(4-benzyloxy-phenyl)-1-(piperidine-1-carbonyl)-ethyl]-amide]: where the note is “5 μM nitrendipine”, the “IMR 32 % of Blockade @ 1 μM” value came to 80% and the “IMR 32 % of Blockade @ 10 μM” value is 85%.

With `CC(C)C[C@@H](C(=O)N[C@@H](Cc1ccc(OCc2ccccc2)cc1)C(=O)NCCN1CCCCC1)N(C)Cc1ccc(C(C)(C)C)cc1` (relative stereo) [Example 15, [S-(R*,R*)]-2-[(4-tert-Butyl-benzyl)-methyl-amino]-4-methyl-pentanoic acid [2-(4-benzyloxy-phenyl)-1-(2-piperidin-1-yl-ethylcarbamoyl)-ethyl]-amide], for the setting “5 μM nitrendipine”, the “IMR 32 % of Blockade @ 1 μM” value was determined as 56% and the “IMR 32 % of Blockade @ 10 μM” value came to 80%.

Regarding `CC(C)C[C@@H](C(=O)N[C@@H](Cc1ccc(OCc2ccccc2)cc1)C(=O)N1CCN(Cc2ccccc2)CC1)N(C)Cc1ccc(C(C)(C)C)cc1` (relative stereo) [Example 16, [S-(R*,R*)-2-[(4-tert-Butyl-benzyl)-methyl-amino]-4-methyl-pentanoic acid [1-(4-benzyloxy-benzyl)-2-(4-benzyl-piperazin-1-yl)-2-oxo-ethyl]-amide], for the setting “5 μM nitrendipine”, the “IMR 32 % of Blockade @ 1 μM” value stood at 41% and the “IMR 32 % of Blockade @ 10 μM” value was 66%. For orientation: IC50 means the concentration that gives 50% inhibition. With `CC(C)C[C@@H](C(=O)N[C@@H](Cc1ccc(OCc2ccccc2)cc1)C(=O)NC1CCN(Cc2ccccc2)CC1)N(C)Cc1ccc(C(C)(C)C)cc1` (relative stereo) [Example 17, S-(R*,R*)]-2-[(4-tert-Butyl-benzyl)-methyl-amino]-4-methyl-pentanoic acid [2-(4-benzyloxy-phenyl)-1-(1-benzyl-piperidin-4-yl-carbamoyl)-ethyl]-amide], the IC50 is 440 nM. Consider `CC(C)C[C@@H](C(=O)N[C@@H](Cc1ccc(OCc2ccccc2)cc1)C(=O)N1CCN(C)CC1)N(C)Cc1ccc(C(C)(C)C)cc1` (relative stereo) [Example 18, [S-(R*,R*)]-2-[(4-tert-Butyl-benzyl)-methyl-amino]-4-methyl-pentanoic acid [1-(4-benzyloxy-benzyl)-2-(4-methyl-piperazin-1-yl)-2-oxo-ethyl]-amide], for which, under “5 μM nitrendipine”, the “IMR 32 % of Blockade @ 1 μM” value is given as 52% and the “IMR 32 % of Blockade @ 10 μM” value is recorded as 95%.

With `CC(C)C[C@@H](C(=O)N[C@@H](Cc1ccc(OCc2ccccc2)cc1)C(=O)NC(C)(C)C)N(C)C1CCCCC1` (relative stereo) [Example 19, [S-(R*,R*)]-2-(Cyclohexyl-methyl-amino)-4-methyl-pentanoic acid [2-(4-benzyloxy-phenyl)-1-tert-butylcarbamoyl-ethyl]-amide], the IC50 was found to be 200 nM. Regarding `CC(C)C[C@@H](C(=O)N[C@@H](Cc1ccc(OCc2ccccc2)cc1)C(=O)N1CCCCC1)N(C)C1CCCCC1` (relative stereo) [Example 20, [S-(R*,R*)]-2-(Cyclohexyl-methyl-amino)-4-methyl-pentanoic acid [2-(4-benzyloxy-phenyl)-1-(piperidine-1-carbonyl)-ethyl]-amide], where the note is “5 μM nitrendipine”, the “IMR 32 % of Blockade @ 1 μM” value was determined as 65% and the “IMR 32 % of Blockade @ 10 μM” value is 87%.

Turning to `CC(C)C[C@@H](C(=O)N[C@@H](Cc1ccc(OCc2ccccc2)cc1)C(=O)NCCN1CCCCC1)N(C)C1CCCCC1` (relative stereo) [Example 21, [S-(R*,R*)]-2-(Cyclohexyl-methyl-amino)4-methyl-pentanoic acid [2-(4-benzyloxy-phenyl)-1-(2-piperidin-1-yl-ethylcarbamoyl)-ethyl]-amide], the IC50 was found to be 880 nM. Take `CC(C)C[C@@H](C(=O)N[C@@H](Cc1ccc(OCc2ccccc2)cc1)C(=O)N1CCN(Cc2ccccc2)CC1)N(C)C1CCCCC1` (relative stereo) [Example 22, [S-(R*,R*)]-2-(Cyclohexyl-methyl-amino)-4-methyl-pentanoic acid [1-(4-benzyloxy-benzyl)-2-(4-benzyl-piperazin-1-yl)-2-oxo-ethyl]-amide]: under “5 μM nitrendipine”, the “IMR 32 % of Blockade @ 1 μM” value amounted to 57% and the “IMR 32 % of Blockade @ 10 μM” value is 87%. For the compound `CC(C)C[C@@H](C(=O)N[C@@H](Cc1ccc(OCc2ccccc2)cc1)C(=O)NC1CCN(Cc2ccccc2)CC1)N(C)C1CCCCC1` (relative stereo) [Example 23, [S-(R*,R*)]-2-(Cyclohexyl-methyl-amino)-4-methyl-pentanoic acid [2-(4-benzyloxy-phenyl)-1-(1-benzyl-piperidin-4-ylcarbamoyl)-ethyl]-amide], the “IMR 32 % of Blockade @ 1 μM” value (5 μM nitrendipine) was 53%. The “IMR 32 % of Blockade @ 3 μM” value (3 μM, 5 μM nitrendipine) is given as 80%. Regarding `CC(C)C[C@@H](C(=O)N[C@@H](Cc1ccc(OCc2ccccc2)cc1)C(=O)N1CCN(C)CC1)N(C)C1CCCCC1` (relative stereo) [Example 24, [S-(R*,R*)]-2-(Cyclohexyl-methyl-amino)4-methyl-pentanoic acid [1-(4-benzyloxy-benzyl)-2-(4-methyl-piperazin-1-yl)-2-oxo-ethyl]-amide], under “5 μM nitrendipine”, the “IMR 32 % of Blockade @ 1 μM” value stood at 32% and the “IMR 32 % of Blockade @ 10 μM” value turned out to be 84%. As for `CC(C)C[C@@H](C(=O)N[C@@H](Cc1ccc(OCc2ccccc2)cc1)C(=O)N1CCCCC1)N(C)CC1CCCCC1` (relative stereo) [Example 26, [S-(R*,R*)]-2-(Cyclohexylmethyl-methyl-amino)-4-methyl-pentanoic acid [^2-(^4-benzyloxy-phenyl)-1-(piperidine-1-carbonyl)-ethyl]-amide], the IC50 amounted to 600 nM.

With `CC(C)C[C@@H](C(=O)N[C@@H](Cc1ccc(OCc2ccccc2)cc1)C(=O)NCCN1CCCCC1)N(C)CC1CCCCC1` (relative stereo) [Example 27, [S-(R*,R*)]-2-(Cyclohexylmethyl-methyl-amino)-4-methyl-pentanoic acid [2-(4-benzyloxy-phenyl)-1-(2-piperidin-1-yl-ethylcarbamoyl)-ethyl]-amide], the IC50 came to 1300 nM. On the same count and under the same terms, then `CC(C)C[C@@H](C(=O)N[C@@H](Cc1ccc(OCc2ccccc2)cc1)C(=O)N1CCN(Cc2ccccc2)CC1)N(C)CC1CCCCC1` (relative stereo) [Example 28, [S-(R*,R*)]-2-(Cyclohexylmethyl-methyl-amino)-4-methyl-pentanoic acid [1-(4-benzyloxy-benzyl)-2-(4-benzyl-piperazin-1-yl)-2-oxo-ethyl]-amide], with 500 nM.
